Source: paper PMC11500415, “Chemical inhibition of stomatal differentiation by perturbation of the master-regulatory bHLH heterodimer via an ACT-Like domain” (Nature Communications, 2024)

Legend:
[1] = target: T1, SCRM-FAMA heterodimer (Arabidopsis thaliana, UniProt Q56YJ8); test: Ratiometric BiFC in N. benthamiana leaves; assay type: cell-based; conditions: 100 μM, 1 day
T1 construct: heterodimerization of SCRM with full-length SPCH, MUTE, or FAMA in the context of the plant cells; combinations of split YFP constructs fused to the full-length stomatal bHLH proteins; nYFP (N terminus of EYFP, 174 amino acids); cYFP (C terminus of EYFP, 64 amino acids); expressed in transfected cells; host or cells: Nicotiana benthamiana leaves (Agrobacterium infiltration)
T1 sequence (Q56YJ8 1-414): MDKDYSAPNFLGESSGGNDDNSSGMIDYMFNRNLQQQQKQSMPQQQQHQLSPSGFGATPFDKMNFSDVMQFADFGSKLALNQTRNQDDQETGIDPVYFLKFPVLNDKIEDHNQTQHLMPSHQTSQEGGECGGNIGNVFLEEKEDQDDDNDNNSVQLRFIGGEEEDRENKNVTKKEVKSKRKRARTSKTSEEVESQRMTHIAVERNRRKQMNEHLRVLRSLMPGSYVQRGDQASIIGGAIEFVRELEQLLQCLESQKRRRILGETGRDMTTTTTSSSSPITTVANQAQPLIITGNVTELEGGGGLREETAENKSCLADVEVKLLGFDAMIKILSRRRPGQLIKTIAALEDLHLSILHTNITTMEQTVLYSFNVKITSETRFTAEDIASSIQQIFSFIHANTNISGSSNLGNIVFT
Description: (§1) For ratiometric BiFC assays, the cDNAs of SPCH, MUTE, and FAMA were cloned into the 35S CaMV promoter-driven destination vector pSPYNE, which contains the N terminus of the EYFP protein (nYFP-174 amino acids), while the cDNA of SCRM and SCRM2 was inserted into pSPYCE, which contains the C terminus of the EYFP protein (cYFP-64 amino acids) (see Supplementary Table 5 for detailed information of the constructs). The constructs were then transformed into Agrobacterium tumefaciens strain GV3101. The Agrobacterium was resuspended in infiltration buffer (10 mM MgCl2, 10 mM 2-(N-morpholino)ethanesulfonic acid [pH 5.6], and 150 µM acetosyringone). Bacterial culture densities were adjusted to a final optical density (OD600) of 1.0, and the cell suspensions were incubated at room temperature for 4 hours prior to infiltration. Equal volumes of cultures carrying the corresponding complementary pair of BiFC constructs (YFPn and YFPc), along with CaMV35S::Histone H2B-mScarlet-I3 and the silencing suppressor plasmid p19 (a gift from Dr. Sir David Baulcombe) were mixed and then co-infiltrated into 4-week-old N. benthamiana leaves. The infiltrated N. benthamiana leaves were incubated at 25 °C for 2 days. Subsequently, leaf discs were cut out and cultured in mock or in liquid 1/2 MS media in mock (DMSO) or 100 µM Stomidazolone for 1 day. Confocal imaging of N. benthamiana leaves was performed using a Leica SP8 confocal microscope using a 20X objective lens (Leica Microsystems), simultaneously capturing YFP (excitation at 518 nm and emission at 530 nm) and mScarlet-I3 (excitation at 569 nm and emission at 600 nm) differential interference contrast channels.

[2] = target: T2, SCRM-MUTE heterodimer (Arabidopsis thaliana, UniProt Q9M8K6); test: Ratiometric BiFC in N. benthamiana leaves; assay type: cell-based; conditions: 100 μM, 1 day
T2 construct: expressed in transfected cells; host or cells: yeast strain AH109
T2 sequence (Q9M8K6 1-202): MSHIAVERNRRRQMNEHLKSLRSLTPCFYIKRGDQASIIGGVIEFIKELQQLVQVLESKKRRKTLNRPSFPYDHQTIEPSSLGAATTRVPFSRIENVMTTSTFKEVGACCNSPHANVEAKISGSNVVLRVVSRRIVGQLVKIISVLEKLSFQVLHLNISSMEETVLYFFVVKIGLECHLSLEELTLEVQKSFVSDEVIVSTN
Description: as §1

O=C1C(c2ccccc2)=NC(NS(=O)(=O)c2ccccc2)(c2ccccc2)N1S(=O)(=O)c1ccccc1 (centres unmarked) [Stomidazolone]
effect on heterodimerization, YFP/RFP signal ratio (in words) [1]: not affecting | effect on heterodimerization, YFP/RFP signal ratio (in words) [2]: severely perturbs
